Results on 17 compounds are retold here after PubChem BioAssay (NCI).

Each structure is given as a SMILES string.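 Results reflect a 48-hour exposure of cells in 96-well plates to compound at five concentrations. GI50 is the concentration that inhibits growth by half. TGI: total growth inhibition.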 Where only a bound is given, the exact number is not on record here.

Some test systems named below: T-47D breast; BT-549 breast; HS 578T breast; MCF7 breast; MDA-N.
Test in all cases: NCI-60 cell line screen, 48 h

For `NCCCCCCCCCn1c2c(c3ccccc3c1=O)C(=O)c1ccccc1-2`, the GI50 in the assay on T-47D breast is 9.33 µM; in the assay on BT-549 breast, 9.26 µM; in the assay with HS 578T breast, 10.3 µM; in the assay on MCF7 breast, 9.62 µM. Also, the TGI stood at 22 µM in the assay with T-47D breast, 18.9 µM in the assay on BT-549 breast, 21.9 µM with HS 578T breast and 26.1 µM in the assay with MCF7 breast.
For the compound `Cc1ccnc(NC(c2ccccc2)c2ccc3cccnc3c2O)c1` (stereo not drawn), the GI50 with T-47D breast was 4.22 µM; in the assay with HS 578T breast, 3.21 µM; in the assay with MCF7 breast it was 5.18 µM. Besides, the TGI with T-47D breast worked out at 35.1 µM; in the assay with HS 578T breast it was 35.1 µM; with MCF7 breast, 30.4 µM.
With `O=C(c1ccccc1)c1c2n(c3c1cc(O)c1ccccc13)CCN2`, the GI50 is 1.77 µM with T-47D breast, 13.5 µM in the assay with BT-549 breast, 10.9 µM in the assay with HS 578T breast and 1.97 µM with MCF7 breast. Further, the TGI in the assay with T-47D breast is 3.99 µM; in the assay with BT-549 breast it was 30.6 µM; with HS 578T breast, over 100 µM; in the assay with MCF7 breast, 3.87 µM.
For `O=C1Nc2c(ccc(Cl)c2Cl)/C1=C\c1cc(C(F)(F)F)cc(C(F)(F)F)c1`, the GI50 in the assay on T-47D breast was 2.5 µM; in the assay on BT-549 breast, 6.02 µM; in the assay on HS 578T breast it was 1.21 µM; in the assay with MCF7 breast it was 0.848 µM. Also, the TGI in the assay on T-47D breast was 10.2 µM; in the assay on BT-549 breast, 12.5 µM; with HS 578T breast it was 3.18 µM; with MCF7 breast, 5.64 µM.
`O=C(Nc1ccc(Cl)cc1)c1cc2ccccc2cc1OP(=O)(O)O`: the GI50 with T-47D breast was 3.98 µM; in the assay on BT-549 breast it was 2.89 µM; in the assay with HS 578T breast it was 2.96 µM; in the assay on MCF7 breast it was 5.52 µM. Besides, the TGI in the assay on T-47D breast was 35.2 µM; in the assay with BT-549 breast, 9.24 µM; in the assay on HS 578T breast it was 19.8 µM; with MCF7 breast, 40.9 µM.
Turning to `COc1c(OC)c(OC)c(-c2cc(=O)c3c(OC)c(OC)c(OC)c(OC)c3o2)c(OC)c1OC`, the TGI with T-47D breast is 47.9 µM; in the assay with BT-549 breast it was over 100 µM; in the assay on MDA-N, over 100 µM; with HS 578T breast it was over 100 µM.
Take `ClCc1ccc(-c2ccc(Cn3cnc4c(Cl)ncnc43)cc2)cc1`: the GI50 is 3.11 µM with BT-549 breast, 3.06 µM with HS 578T breast and 1.1 µM in the assay on MCF7 breast. The TGI with BT-549 breast was over 100 µM; in the assay with HS 578T breast, over 100 µM; in the assay with MCF7 breast, 12.4 µM.
On to `CNC(=O)c1cc(Oc2ccc3nc(NC(=O)Nc4cc(C(F)(F)F)cc(C(F)(F)F)c4)sc3c2)ccn1`, for which the GI50 was 0.479 µM with T-47D breast, 1.34 µM with BT-549 breast, 1.65 µM in the assay on HS 578T breast and 1.05 µM in the assay with MCF7 breast. The TGI in the assay with T-47D breast is 2.3 µM; in the assay on BT-549 breast it was 3.07 µM; in the assay with HS 578T breast it was 4.84 µM; with MCF7 breast, 2.93 µM.
On to `CCOC(=O)Nc1cc(-c2ccc(C)c(NS(C)(=O)=O)c2)nn2c(C)nnc12`, for which the GI50 in the assay with T-47D breast is 1.47 µM; with BT-549 breast, 5.35 µM; with HS 578T breast, 0.563 µM; in the assay with MCF7 breast it was 0.395 µM. Moreover, the TGI in the assay with T-47D breast is 17 µM; in the assay on BT-549 breast, over 100 µM; in the assay with HS 578T breast, 6.82 µM; in the assay on MCF7 breast it was over 100 µM.
As to `COc1cc(/C=C2\CC3C4CCC5=CC(=O)CC[C@]5(C)C4CC[C@]3(C)C2=O)ccc1OCCN1CCCCC1` (stereo partly drawn), the GI50 is 11.3 µM in the assay on T-47D breast, 6.19 µM in the assay on BT-549 breast, 4.79 µM in the assay with HS 578T breast and 3.35 µM with MCF7 breast. The TGI stood at 41.9 µM in the assay with T-47D breast, 23.3 µM with BT-549 breast, 23 µM with HS 578T breast and 8.55 µM in the assay with MCF7 breast.
In the case of `O=C1c2ccccc2-c2ccccc2C1(Cl)Cl`, the GI50 in the assay on T-47D breast was 1.6 µM; with BT-549 breast, 1.72 µM; in the assay on HS 578T breast, 2.5 µM; in the assay with MCF7 breast it was 1.86 µM. Further, the TGI in the assay on T-47D breast was 4.12 µM; in the assay with BT-549 breast, 3.14 µM; with HS 578T breast, 9.41 µM; with MCF7 breast it was 4.19 µM.
Consider `COC1/C=C/OC2(C)Oc3c(C)c(O)c4c(O)c(c(C=NOC(c5ccccc5)c5ccccc5)c(O)c4c3C2=O)NC(=O)/C(C)=C/C=C/C(C)C(O)C(C)C(O)C(C)C(OC(C)=O)C1C` (stereo not drawn), for which the GI50 with T-47D breast was 1.87 µM; with BT-549 breast it was 1.62 µM; with HS 578T breast it was 1.5 µM; in the assay on MCF7 breast it was 1.31 µM. In addition, the TGI turned out to be 6.71 µM in the assay on T-47D breast, 5.47 µM in the assay on BT-549 breast, 5.17 µM in the assay on HS 578T breast and 3.81 µM in the assay on MCF7 breast.
Take `CCCCCCn1c2c(c3c(O)cccc31)C(=O)c1ccccc1-2`: the GI50 in the assay on T-47D breast is 41.4 µM; in the assay on BT-549 breast, 16.4 µM; with HS 578T breast, 24.2 µM; with MCF7 breast, 18 µM. Also, the TGI in the assay with T-47D breast is over 100 µM; in the assay with BT-549 breast, 33.9 µM; in the assay with HS 578T breast, 52.6 µM; in the assay with MCF7 breast, 35.2 µM.
As for `Cn1c(=O)c(-c2c(Cl)cccc2Cl)cc2cnc(Nc3ccc(I)cc3)nc21`, the GI50 in the assay on T-47D breast is 0.229 µM; in the assay on BT-549 breast it was 0.0389 µM; in the assay on HS 578T breast it was under 0.01 µM; with MCF7 breast, 0.212 µM. The TGI in the assay with T-47D breast is over 100 µM; in the assay with BT-549 breast it was 0.445 µM; with HS 578T breast, 0.235 µM; with MCF7 breast, over 100 µM.
`O=C(Nc1nc(-c2ccccc2Cl)cs1)c1cc(-c2ccc(Cl)cc2)nc2ccc(Cl)cc12`: the GI50 with T-47D breast is 22.5 µM; in the assay on BT-549 breast it was 2.44 µM; in the assay on HS 578T breast, 2.67 µM; in the assay on MCF7 breast, 0.678 µM. Besides, the TGI in the assay on T-47D breast is over 100 µM; in the assay on BT-549 breast, 6.99 µM; with HS 578T breast, 25.7 µM; in the assay with MCF7 breast, over 100 µM.
`CS(=O)(=O)c1ccc(-c2cnc(NCc3ccco3)n3cnnc23)cc1`: the GI50 in the assay with T-47D breast is 47.8 µM; with BT-549 breast it was over 100 µM; in the assay on HS 578T breast, over 100 µM; in the assay with MCF7 breast, 60.4 µM. Further, the TGI in the assay with T-47D breast, in the assay on BT-549 breast, with HS 578T breast and in the assay on MCF7 breast was over 100 µM each time.
Regarding `Cc1nc2cc(Nc3nc(Nc4ccc(F)cc4)nc(N4CCCC4)n3)ccc2n1Cc1ccccc1`, the GI50 in the assay on T-47D breast is 2.18 µM; with BT-549 breast, 1.88 µM; with HS 578T breast it was 2.23 µM; in the assay on MCF7 breast it was 2.22 µM. Besides, the TGI in the assay on T-47D breast was found to be 4.94 µM; in the assay with BT-549 breast, 3.5 µM; in the assay on HS 578T breast, 6.67 µM; in the assay on MCF7 breast it was 7.44 µM.
